From PubChem BioAssay (NCI)
Values joined by “and” are separate entries in the source; they are usually repeats but may differ in a detail not shown here. Equal values may be shown once.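 Exposure lasted 48 hours, with cells grown in 96-well plates and compounds tested at five concentrations. GI50: concentration for 50% inhibition of growth. TGI: concentration producing complete growth inhibition.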

Columns and labels:
Experiment in all cases: NCI anticancer screen, dose series, 48 h
786-0 renal = tested on: 786-0 renal
SF-295 CNS = tested on: SF-295 CNS
IGROV1 ovarian = tested on: IGROV1 ovarian
NCI-H460 lung = tested on: NCI-H460 lung
CAKI-1 renal = tested on: CAKI-1 renal
OVCAR-3 ovarian = tested on: OVCAR-3 ovarian
RXF 393 renal = tested on: RXF 393 renal
SF-268 CNS = tested on: SF-268 CNS
T-47D breast = tested on: T-47D breast
OVCAR-5 ovarian = tested on: OVCAR-5 ovarian
M14 melanoma = tested on: M14 melanoma
BT-549 breast = tested on: BT-549 breast
SK-MEL-5 melanoma = tested on: SK-MEL-5 melanoma
MCF7 breast = tested on: MCF7 breast
K-562 leukemia = tested on: K-562 leukemia
SK-MEL-28 melanoma = tested on: SK-MEL-28 melanoma
A549 NSCLC = tested on: A549 NSCLC
U251 CNS = tested on: U251 CNS
NCI-H23 lung = tested on: NCI-H23 lung
NCI-H226 lung = tested on: NCI-H226 lung
EKVX NSCLC = tested on: EKVX NSCLC
MDA-MB-231 breast = tested on: MDA-MB-231 breast
HCC-2998 colon = tested on: HCC-2998 colon
UACC-62 melanoma = tested on: UACC-62 melanoma
NCI-H522 lung = tested on: NCI-H522 lung
SK-MEL-2 melanoma = tested on: SK-MEL-2 melanoma
SF-539 CNS = tested on: SF-539 CNS
A498 renal = tested on: A498 renal
HOP-62 NSCLC = tested on: HOP-62 NSCLC
SK-OV-3 ovarian = tested on: SK-OV-3 ovarian
SNB-19 CNS = tested on: SNB-19 CNS
SNB-75 CNS = tested on: SNB-75 CNS
LOX IMVI melanoma = tested on: LOX IMVI melanoma
MDA-N = tested on: MDA-N
MALME-3M melanoma = tested on: MALME-3M melanoma
HL-60(TB) leukemia = tested on: HL-60(TB) leukemia
MDA-MB-435 = tested on: MDA-MB-435
OVCAR-4 ovarian = tested on: OVCAR-4 ovarian
HCT-15 colon = tested on: HCT-15 colon
PC-3 prostate = tested on: PC-3 prostate
DU-145 prostate = tested on: DU-145 prostate
ACHN renal = tested on: ACHN renal
KM12 colon = tested on: KM12 colon
TK-10 renal = tested on: TK-10 renal
HCT-116 colon = tested on: HCT-116 colon
HOP-92 NSCLC = tested on: HOP-92 NSCLC
CCRF-CEM leukemia = tested on: CCRF-CEM leukemia
SW-620 colon = tested on: SW-620 colon
OVCAR-8 ovarian = tested on: OVCAR-8 ovarian
HT29 colon = tested on: HT29 colon
SN12C renal = tested on: SN12C renal
COLO 205 colon = tested on: COLO 205 colon
UACC-257 melanoma = tested on: UACC-257 melanoma
NCI/ADR-RES ovarian = tested on: NCI/ADR-RES ovarian
UO-31 renal = tested on: UO-31 renal
MOLT-4 leukemia = tested on: MOLT-4 leukemia
HS 578T breast = tested on: HS 578T breast

S=C(N/N=C(/c1ccccc1)c1ccccn1)N1CCCCCC1
GI50 (786-0 renal): < 1 nM | TGI (786-0 renal): 1460 nM and 1770 nM | GI50 (SF-295 CNS): 564 nM | TGI (SF-295 CNS): 2080 nM and 1510 nM | GI50 (IGROV1 ovarian): < 1 nM | TGI (IGROV1 ovarian): 1060 nM and 1980 nM | GI50 (NCI-H460 lung): 3.55 nM | TGI (NCI-H460 lung): 1580 nM and 1890 nM | GI50 (CAKI-1 renal): 131 nM | TGI (CAKI-1 renal): 1870 nM and 2020 nM | GI50 (OVCAR-3 ovarian): < 1 nM | TGI (OVCAR-3 ovarian): 1760 nM and 1230 nM | TGI (RXF 393 renal): 1630 nM and 2320 nM | TGI (SF-268 CNS): 1960 nM and 2870 nM | GI50 (T-47D breast): < 1 nM | GI50 (OVCAR-5 ovarian): < 1 nM | TGI (OVCAR-5 ovarian): 2110 nM | TGI (M14 melanoma): 1470 nM and 260 nM | TGI (BT-549 breast): 2070 nM | GI50 (SK-MEL-5 melanoma): 19.9 nM | TGI (SK-MEL-5 melanoma): 138 nM and 1170 nM | GI50 (MCF7 breast): < 1 nM | TGI (MCF7 breast): 194 nM and 1560 nM | GI50 (K-562 leukemia): < 1 nM | TGI (K-562 leukemia): 11.7 nM | GI50 (SK-MEL-28 melanoma): 863 nM and 639 nM | TGI (SK-MEL-28 melanoma): 2410 nM and 2150 nM | GI50 (A549 NSCLC): 31.8 nM | TGI (A549 NSCLC): 1700 nM and 2250 nM | GI50 (U251 CNS): 2.87 nM | TGI (U251 CNS): 1220 nM and 1270 nM | TGI (NCI-H23 lung): 2110 nM | GI50 (NCI-H226 lung): 20 nM | TGI (NCI-H226 lung): 1190 nM and 1580 nM | GI50 (EKVX NSCLC): 641 nM | TGI (EKVX NSCLC): 1940 nM and 365 nM | GI50 (MDA-MB-231 breast): < 1 nM | TGI (MDA-MB-231 breast): 1870 nM and 1830 nM | GI50 (HCC-2998 colon): 1170 nM | TGI (HCC-2998 colon): 3130 nM and 1980 nM | GI50 (UACC-62 melanoma): 390 nM | TGI (UACC-62 melanoma): 3730 nM and 780 nM | GI50 (NCI-H522 lung): 1280 nM | TGI (NCI-H522 lung): 3480 nM and 1130 nM | GI50 (SK-MEL-2 melanoma): 26.9 nM | TGI (SK-MEL-2 melanoma): 2120 nM and 2140 nM | GI50 (SF-539 CNS): 329 nM | TGI (SF-539 CNS): 1430 nM and 1630 nM | GI50 (A498 renal): 9.73 nM | TGI (A498 renal): 775 nM and 1840 nM | TGI (HOP-62 NSCLC): 1910 nM | GI50 (SK-OV-3 ovarian): 1.73 nM | TGI (SK-OV-3 ovarian): 2500 nM and 1310 nM | GI50 (SNB-19 CNS): 274 nM | TGI (SNB-19 CNS): 2270 nM and 2060 nM | GI50 (SNB-75 CNS): 660 nM | TGI (SNB-75 CNS): 2040 nM and 1950 nM | GI50 (LOX IMVI melanoma): 8.92 nM and 58.3 nM | TGI (LOX IMVI melanoma): 1790 nM and 1270 nM | GI50 (MDA-N): 217 nM | TGI (MDA-N): 2320 nM and 1720 nM | GI50 (MALME-3M melanoma): 39.2 nM | TGI (MALME-3M melanoma): 1960 nM and 2010 nM | GI50 (HL-60(TB) leukemia): < 1 nM | TGI (HL-60(TB) leukemia): 4130 nM | GI50 (MDA-MB-435): 43 nM | TGI (MDA-MB-435): 1590 nM and 1580 nM | TGI (OVCAR-4 ovarian): 2040 nM | GI50 (HCT-15 colon): 3.27 nM | TGI (HCT-15 colon): 2050 nM and 1530 nM | GI50 (PC-3 prostate): < 1 nM | TGI (PC-3 prostate): 1370 nM and 1520 nM | GI50 (DU-145 prostate): 1030 nM | TGI (DU-145 prostate): 2190 nM and 2150 nM | GI50 (ACHN renal): 2.16 nM | TGI (ACHN renal): 1580 nM and 1470 nM | GI50 (KM12 colon): 10.5 nM | TGI (KM12 colon): 1570 nM and 1500 nM | TGI (TK-10 renal): 1520 nM and 1860 nM | GI50 (HCT-116 colon): < 1 nM | TGI (HCT-116 colon): 1430 nM and 1380 nM | TGI (HOP-92 NSCLC): 1970 nM | GI50 (CCRF-CEM leukemia): < 1 nM | GI50 (SW-620 colon): < 1 nM | TGI (SW-620 colon): 1430 nM and 1680 nM | GI50 (OVCAR-8 ovarian): 3.75 nM | TGI (OVCAR-8 ovarian): 1650 nM and 1330 nM | GI50 (HT29 colon): 7.24 nM | TGI (HT29 colon): 3410 nM and 1800 nM | TGI (SN12C renal): 1910 nM | GI50 (COLO 205 colon): < 1 nM | TGI (UACC-257 melanoma): 709 nM | GI50 (NCI/ADR-RES ovarian): < 1 nM | TGI (NCI/ADR-RES ovarian): 1280 nM and 2540 nM | TGI (UO-31 renal): 1750 nM | GI50 (MOLT-4 leukemia): < 1 nM | TGI (MOLT-4 leukemia): 1.91 nM | GI50 (HS 578T breast): 1540 nM | TGI (HS 578T breast): 7580 nM and 7590 nM
